Data reported in US7862811B2, “Protease inhibition for prevention or treatment of heart failure” (Regents of the University of Colorado, priority 2004, dated 2011).
One block for each compound: values may come before it. Square brackets hold non-standard residues; d marks the D form. Peptide text beside a SMILES is read from it. * marks the point of attachment. Nle = CCCC[C@H](N)C(=O)O; Cbz = O=C(OCc1ccccc1)*

Legend:
[1] = system: RV contractile dysfunction from acute RV pressure overload
[2] = system: m-calpain from porcine kidney; details: cited from earlier work
Molt-4 cells = details: cited from earlier work
cultured rat lenses = details: calcium ionophore A23187; cited from earlier work
isolated rat hearts [3] = details: elevated LV end-diastolic pressure without ischemia; cited from earlier work
MMP = details: acute pig model, orally-active; cited from earlier work
isolated rat hearts [4] = details: global ischemia; cited from earlier work

- independent hemodynamic effects ([1]; pig, in vivo): no independent hemodynamic effects
SMILES: CC(C)[C@H](NC(=O)OCc1ccccc1)C(=O)N[C@H](C=O)Cc1ccccc1 [MDL-28170, carbobezoxy-valinyl-phenylalaninal] (Cbz-Val-Phe-aldehyde)
- attenuation of RV dysfunction resulting from acute RV pressure overload (RVPO) ([1]; 90 min RVPO, 30 min recovery, versus vehicle): more than 50%
- preload-adjusted external work of the RV free wall ([1]; thirty min after release of pulmonary artery constriction, n=7, p<0.05 vs vehicle): 69 % of baseline

SMILES: CC(C)C[C@@H](C=O)NC(=O)[C@@H](NS(=O)(=O)c1ccc(F)cc1)C(C)C [SJA6017, N-(4-fluorophenylsulfonyl)-L-valyl-L-leucinal]
- binding to the active site of m-calpain ([2]; casein zymography): reversibly bound
- inhibition of purified m-calpain ([2]; in vitro): strong inhibition
- cell permeability (Molt-4 cells): cell-permeable
- nuclear opacity and proteolysis of crystallins and alpha-spectrin (cultured rat lenses): reduced

SMILES: CCCC[C@@H](C=O)NC(=O)[C@H](CC(C)C)NC(=O)OCc1ccccc1 [calpeptin]
- TnI degradation and stunning (isolated rat hearts [3]): prevented

SMILES: NC(=O)C1=C(O)C[C@@H]2C[C@@H]3Cc4cccc(O)c4C(=O)C3=C(O)[C@]2(O)C1=O [COL-3]
- MMP-mediated lung injury (MMP): prevent

SMILES: CCCC[C@@H](C=O)NC(=O)[C@H](CC(C)C)NC(=O)[C@H](CC(C)C)NC(C)=O [calpain inhibitor-1] (Ac-Leu-Leu-[Nle]-aldehyde)
- cytoskeletal degradation and myocardial stunning (isolated rat hearts [4]): attenuates
